What was measured:
Washed platelets [1] = assay: Mitochondrial membrane potential (TMRM); format: cell-based, Human; conditions: compounds 1, 5 and 10 μM, 20 min
Method: (§1) Human platelet purification. The blood sample was obtained from voluntary donors (10 days without antiplatelet medication) who agreed to participate after signing informed consent (Scientific Ethics Committee of the University of Talca N° 04–2022). Briefly, blood anticoagulated with acid-citrate-dextrose (ACD) was obtained in a 4:1 v/v ratio. The sample was centrifuged for 12 min at 250 g to obtain platelet-rich plasma (PRP). Subsequently, the PRP was centrifuged for 8 min at 900 g to obtain the platelet pellet. The plasma supernatant was removed, and the platelets were resuspended in Tyrodes buffer without calcium plus ACD in a ratio of 5:1 v/v. The platelets were centrifuged once more for 8 min at 900 g and the pellet was resuspended in Tyrodes buffer without calcium. Finally, the platelets were counted (Mindray BC-3000 Plus hematology counter, Japan), adjusted to the desired concentration, and used within 3 h.
Mitochondrial membrane potential (ΔΨm). Washed platelets (50 × 10^6 platelets/mL) were labeled with a 100 nM tetramethylrhodamine methyl ester (TMRM) probe and incubated with compounds (1, 5 and 10 μM) for 20 min at 37 °C. The sample was acquired in the BD Facs Lyric flow cytometer (BD Biosciences, USA). Representative dot plots are available in Supplementary Figs. 12, 24, and 25. Carbonyl cyanide 4-(trifluoromethoxy) phenylhydrazone (FCCP) 1 μM was used as a control for decreasing the mitochondrial membrane potential.

Washed platelets [2] = assay: Cell viability by Calcein-AM (flow cytometry); format: cell-based, Human; conditions: 1, 2, 5, 10 and 20 μM; 15 min
Method: as §1
Cell viability by Calcein-AM. Washed platelets (200-250 × 10^6 platelets/mL) were labeled with 0.1 μM Calcein-AM and incubated for 15 min at 37 °C protected from light. […] Viability was analyzed on the BD Facs Lyric Flow Cytometer (BD Biosciences, USA). The percentage of Calcein-negative platelets (without fluorescence) in the CD61-PE-positive subpopulation (BD Biosciences, San José, CA, USA) was identified as non-viable platelets. […]

platelet-rich plasma [3] = assay: Platelet aggregation in platelet-rich plasma; format: cell-based, Human; conditions: collagen 2 μg/mL; PRP
Method: (§2) Platelet aggregation in platelet-rich plasma. The blood sample was obtained from voluntary donors (10 days without antiplatelet medication) who agreed to participate after signing informed consent (Scientific Ethics Committee of the University of Talca N° 04–2022). Venous blood was collected by phlebotomy into 3.2% sodium citrate tubes. The tubes were centrifuged at 250 g for 12 min to obtain PRP. After reserving the PRP, the tubes were centrifuged again at 900 g for 10 min to obtain platelet-poor plasma (PPP). For the aggregation reaction, PRP was adjusted to 200-250 × 10^6 platelets/mL with PPP [[63], [64], [65]]. Platelet counting was performed in a counter (Mindray BC-3000 Plus hematology counter, Japan). The samples were preincubated with the compounds under study for 5 min at 37 °C in the aggregometer (Agg RAM- Helena Biosciences). Aggregation was initiated with collagen 2 μg/mL and the reaction was evaluated for 5 min at 37 °C in shaking at 1000 rpm.

Washed platelets [4] = assay: Mitochondrial ROS (mtROS) levels (MitoSOX); format: cell-based, Human
Method: as §1
Mitochondrial ROS (mtROS) Levels. The MitoSOX probe was used to identify mitochondrial ROS production specifically. Washed platelets (50 × 10^6 platelets/mL) were labeled with the MitoSOX® Red probe (Invitrogen, Carlsbad, CA, USA) 10 μM and incubated for 20 min at 37 °C protected from light. After, compounds (1, 5, and 10 μM) were added to the platelets and incubated for 10 min at 37 °C. […]

platelet-rich plasma [5] = assay: Platelet activation markers in PRP (flow cytometry); format: cell-based, Human; conditions: collagen 2 μg/mL
Method: as §2
Platelet activation markers. […] Aliquots of the reaction were then collected and labeled separately with human antibodies (BD Biosciences, San José, CA, USA) for P-selectin, CD63, activated GPIIb/IIIa (PAC-1), and fibrinogen to assess the levels of each marker on the platelet membrane. The sample was acquired using the BD Facs Lyric flow cytometer (BD Biosciences, USA). […]

[6] = test system: complex I from Y. lipolytica mitochondrial membranes reconstituted into proteoliposomes; assay: Proton pumping and activity of reconstituted complex I (ACMA quench in proteoliposomes); format: biochemical
Method: Proton pumping and activity of reconstituted complex I. Purification of complex I from Y. lipolytica mitochondrial membranes and reconstitution of complex I into Proteoliposomes was performed as previously described. Briefly, complex I was reconstituted in proteoliposomes (Cxl), and then ACMA (9-Amino-6-Chloro-2-Methoxyacridine) was added to quantify the proton pumping activity. Fluorescence changes were monitored at 25 °C in a Fluorolog-3 spectrofluorometer (Horiba Scientific). Settings: λex = 430 nm, λem = 475, slit 5 nm, time increment 0.2 s. Proteoliposomes (15 μg protein) were diluted in 2 ml assay buffer (20 mM Mops pH 7.2, 80 mM KCl, 0.5 μM valinomycin). After starting the measurement, 0.5 μM ACMA, 70 μM decylubiquinone (DBQ), 125 μM NADH, NP4 […]/vehicle, and Carbonyl cyanide m-chlorophenyl hydrazone (CCCP) 5 μM were added after 50, 100, 150, 200 and 300 s, respectively. The measurements were done in triplicate for 5, 15, 30, 45, 60 and 100 μM NP4. The Average over the time after the addition of NADH/NP4/CCCP till the next addition was taken from each measurement. The quenching after NADH the addition was taken as the zero % value and the dequench with CCCP was set to 100%. The zero value was subtracted from the dequenching with NP4 and the max dequenching with CCCP. The DMSO negative control was measured in duplicate.

With `Cc1c(C)c(O)c2c(c1O)C(=O)C(CCCC[P+](c1ccccc1)(c1ccccc1)c1ccccc1)=CC2(C)C.[Br-]` [NP4, (4-(5,8-dihydroxy-4,4,6,7-tetramethyl-1-oxo-1,4-dihydronaphthalen-2-yl)butyl)triphenyl phosphonium bromide] the melting point was 282 °C (dec.), the “Mitochondrial membrane potential (ΔΨm)” value (Washed platelets [1]) was “significantly decrease” and the “Platelet viability (Calcein-AM negative platelets)” value (Washed platelets [2]) was “none of the concentrations evaluated for NP4 showed significant effects”. The “Platelet aggregation in platelet-rich plasma” value (platelet-rich plasma [3]) was “significant decrease”, the mtROS generation (Washed platelets [4]; 10 μM, MitoSOX, 10 min) was “able to increase” and the “Dependence of depolarizing and antiplatelet effect on mtROS” value (Washed platelets [4]; MitoTempol 1 µM added first, then NP4 10 µM) was “independent of mitochondrial ROS levels”. The “Bound fibrinogen in platelet-rich plasma” value (platelet-rich plasma [5]) was “significant decrease”, the “P-selectin exposure in platelet-rich plasma” value (platelet-rich plasma [5]) was “significant decrease” and the IC50 ([6]; ACMA dequench relative to CCCP (100%), 5-100 μM NP4) was 37.7 ± 1.14 µM. The “Concentrations that decouple complex I in liposomes” value ([6]; ACMA fluorescence, proteoliposomes) was 30 to 60 µM.

— PMC11002875, “Linking triphenylphosphonium cation to a bicyclic hydroquinone improves their antiplatelet effect via the regulation of mitochondrial function” (Redox Biology, 2024)
